According to patent US9687494B2, “Iminothiadiazine dioxide compounds as BACE inhibitors, compositions, and their use” (Merck Sharp & Dohme Corp., priority 2009, dated 2017):

Assays:
[1] = Solution stability, Example A (pH 7.4 phosphate buffer/MeOH, LC/MS); assay type: physicochemical
Method: The following comparative procedures were used.
A 1.05 mg/mL stock solution (5 mL) of Ex. 45 in MeOH was prepared. From the stock solution was taken out 1.25 mL and diluted to 25 mL with the addition of 23.75 mL of 10 mM phosphate buffer (pH 7.4)/MeOH (70/30 v/v). This new solution was split into three. One solution was incubated at 4° C., another incubated at 25° C. and the third incubated at 40° C. Each solution was analyzed by LC/MS after day 1, day 2 and day 6 and compared to a standard calibration curve for Ex. 45.
In the following study, the solution stability of the compound of Example 45 was measured and compared to that of Compound Z. The compound of Example 45 is an iminothiadiazine dioxide compound of the invention. Compound Z is the corresponding iminopyrimidinone compound. The structures of the compound of Example 45 and of Compound Z are shown below. Studies were performed in aqueous pH 7.4 buffer containing methanol at 4° C., 25° C. and 40° C.

[2] = Solution stability, Example B (50 mM pH 7.4 phosphate buffer, 25° C., LC/MS); assay type: physicochemical
Method: Stock solutions of the tested compounds were prepared by dissolving about 3 mg of each compound in 3 mL of acetonitrile. Standards for test compounds were prepared by diluting 1 mL of the stock solution with an additional 4 mL of acetonitrile. These standards were stored at 4° C. Samples were prepared by diluting 1 mL of the stock solution with 4 mL of 50 mM pH 7.4 phosphate buffer. These samples were stored at 25° C. in the absence of light. Standards and samples were analyzed by LC/MS initially and at day 1, day 4, and day 6.
Mobile phase A: 10 mM pH 5 ammonium acetate buffer:methanol (90:10)
Mobile phase B: 10 mM pH 5 ammonium acetate buffer:methanol (10:90)
Column: Zorbax SB-Phenyl 4.6×50 mm, 1.8 μm
Column temperature: 40° C.
Detectors: UV at 220 nm and 236 nm
MS, ES ionization, positive mode, for identification only at final time point.
The terms reported in the tables below have the following meanings:
Area % is the integration of peak from HPLC as reported by Waters Empower II software.
RRT is the relative retention time of new product compared to the standard of the test compound.
ND stands for no peak detected by the UV detector.
* stands for no ion detected by the mass spectrometer.
In the following study, the solution stability of the compound of Example 47 was measured and compared to that of Compound Y. The compound of Example 47 is an iminothiadiazine dioxide compound of the invention. Compound Y is the corresponding iminopyrimidinone compound. The structures of the compound of Example 47 and of Compound Y are shown below. Studies were performed in pH 7.4 buffer at 25° C.

[3] = Standard (acetonitrile, stored at 4° C.)

Row | SMILES | Assay (Area %), class symbol ([1]; pH 7.4, 4° C., 2 days) | Assay (Area %), class symbol ([1]; pH 7.4, 4° C., 6 days) | Assay (Area %), class symbol ([1]; pH 7.4, 4° C., time not given) | Assay (Area %), class symbol ([1]; pH 7.4, 25° C., 2 days) | Assay (Area %), class symbol ([1]; pH 7.4, 25° C., 6 days) | Assay (Area %), class symbol ([1]; pH 7.4, 25° C., time not given) | Assay (Area %), class symbol ([1]; pH 7.4, 40° C., 2 days) | Assay (Area %), class symbol ([1]; pH 7.4, 40° C., 6 days) | Assay (Area %), class symbol ([1]; pH 7.4, 40° C., time not given) | Area %, Day 1; compound peak (RRT 1.00) ([2]; Sample at pH 7.4, 25° C.) | Area %, Day 4; compound peak (RRT 1.00) ([2]; Sample at pH 7.4, 25° C.) | Area %, Day 6; compound peak (RRT 1.00) ([2]; Sample at pH 7.4, 25° C.) | Area %, Initial; compound peak (RRT 1.00) ([2]; Sample at pH 7.4, 25° C.) | Area %, Day 1; compound peak (RRT 1.00) [2, 3] | Area %, Day 4; compound peak (RRT 1.00) [2, 3] | Area %, Day 6; compound peak (RRT 1.00) [2, 3] | Area %, Initial; compound peak (RRT 1.00) [2, 3]
1 | CN1C(=N)N[C@](C)(c2cc(-c3cccc(C#N)c3)cs2)CC1=O [Compound Z] | — ((—) stands for >20% degradation) | — ((—) stands for >20% degradation) | — ((—) stands for >20% degradation) | — ((—) stands for >20% degradation) | — ((—) stands for >20% degradation) | — ((—) stands for >20% degradation) | — ((—) stands for >20% degradation) | — ((—) stands for >20% degradation) | — ((—) stands for >20% degradation) |  |  |  |  |  |  |  | 
2 | CN1C(=N)N[C@](C)(c2cc(-c3cccc(C#N)c3)cs2)CS1(=O)=O [Example 45] |  |  |  |  |  |  |  |  | — ((—) stands for >20% degradation) |  |  |  |  |  |  |  | 
3 | CC#Cc1cncc(-c2csc([C@]3(C)CS(=O)(=O)N(C)C(=N)N3)c2)c1 [Example 47] |  |  |  |  |  |  |  |  |  | 98.56 Area % | 98.53 Area % | 98.53 Area % | 98.55 Area % | 98.55 Area % | 98.52 Area % | 98.52 Area % | 98.53 Area %
